According to PMC5082894 (PLoS ONE, 2016):

Experiments:
HIV-1 92HT599 (B-X4) = experiment: PBMC antiviral assay (RT activity), HIV-1 92HT599; type: cell-based; details: Human immunodeficiency virus 1, PBMC, 168 h; PHA-P-activated PBMCs, 125 TCID50, day 7, RT activity
Protocol: (§1) In order to confirm antiretroviral activity of the compounds, using a cell model closer to the pathophysiology, Peripheral Blood Mononuclear Cells (PBMCs) were separated from a buffy-coat from healthy HIV-, HCV-, HBV-seronegative blood donors by Ficoll-Hypaque density gradient centrifugation. The PBMCs were activated by incubation with 1 μg/ml phytohemagglutinin-P (PHA-P; Difco Laboratories) for three days in RPMI 1640 medium supplemented with 10% heat-inactivated fetal calf serum (FCS, +56 ◦C for 45 min), 2mM l-glutamine and a 1% antibiotic cocktail (penicillin, streptomycin, neomycin). After this mitogen activation, PBMCs were cultivated in the same culture medium supplemented with recombinant human interleukin-2 (rHuIL-2; 20 IU/mL) and treated and/or infected. […] All these viruses were amplified in vitro with PHA-P-activated blood mononuclear cells and 50% tissue culture infectious doses (TCID50) were calculated using Kärber’s formula [37], after limited-dilution titration. […] Viral replication was measured by quantifying reverse transcriptase (RT) activity in the cell culture supernatants using the Lenti RT Activity Kit (Cavidi) and AZT was used as reference anti-HIV-1 molecule. EC50 were then calculated and expressed in μM.

HIV-1 92UG029 (A-X4) = experiment: PBMC antiviral assay (RT activity), HIV-1 92UG029; type: cell-based; details: Human immunodeficiency virus 1, PBMC, 168 h; PHA-P-activated PBMCs, 125 TCID50, day 7, RT activity
Protocol: as §1

HIV-1 NL4-3 = experiment: MAGI assay, HIV-1 NL4-3; type: cell-based; details: Human immunodeficiency virus 1, NL43, MAGI cells
Protocol: (§2) Briefly, target cells (HeLa CD4/CCR5-LTR/β-gal; 10^4/well) were plated in 96-well flat microtiter culture plates. […] The test drugs were added initially and viruses were immediately inoculated onto the cells. Forty-eight hours after viral exposure, all blue cells in each well were counted. The cytotoxicity of the compound was determined by the MTT method as previously described. All experiments were performed in triplicate and AZT was used as reference anti-HIV-1 molecule.

[1] = test system: HIV-1 reference strains and clinical isolates; experiment: PBMC antiviral assay, whole panel of strains; type: cell-based
Protocol: The PBMCs were activated by incubation with 1 μg/ml phytohemagglutinin-P (PHA-P; Difco Laboratories) for three days in RPMI 1640 medium supplemented with 10% heat-inactivated fetal calf serum (FCS, +56 ◦C for 45 min), 2mM l-glutamine and a 1% antibiotic cocktail (penicillin, streptomycin, neomycin). After this mitogen activation, PBMCs were cultivated in the same culture medium supplemented with recombinant human interleukin-2 (rHuIL-2; 20 IU/mL) and treated and/or infected. PBMCs were infected either with the reference lymphotropic (-X4) HIV-1 LAI strain [35], the reference macrophage-tropic (-R5) HIV-1 BaL strain [36] or with 4 different clinical isolates (subtype A, B or C). All these viruses were amplified in vitro with PHA-P-activated blood mononuclear cells and 50% tissue culture infectious doses (TCID50) were calculated using Kärber’s formula [37], after limited-dilution titration. […] Cell supernatants were collected at day 7 post-infection and stored at -20°C. Viral replication was measured by quantifying reverse transcriptase (RT) activity in the cell culture supernatants using the Lenti RT Activity Kit (Cavidi) and AZT was used as reference anti-HIV-1 molecule. EC50 were then calculated and expressed in μM. […]

Cytotoxicity in PBMCs = type: cell-based, human; details: human, PHA-P-activated peripheral blood mononuclear cells (PBMCs)
[2] = molecular target: T1, MN gp120 binding to heparan sulfate (HS) (Human immunodeficiency virus type 1 group M subtype B, UniProt P05877); experiment: biochemical; parameters: species or system HIV-1
T1 construct: MN gp120 (50 μg/ml in 5 mM maleate buffer, pH 6); purchased Immunodiagnostics (Massachusetts, USA)
Protocol: (§3) For that purpose, CM4 sensorchips were activated with 50 μL of 0.2 M N-ethyl-N’-([…])-carbodiimide (EDC) and 0.05 M N-hydroxy-succimide (NHS) at 5 μL/min. Then soluble CD4 (10 μg/mL in 10 mM acetate buffer, pH 5), streptavidin (200 μg/mL in 10 mM acetate buffer, pH 4.2), mAb 17b (5 μg/mL in 10 mM acetate buffer, pH 5), MN gp120 (50 μg/ml in 5 mM maleate buffer, pH 6) or YU2 gp120 (50μg/mL in 10 mM acetate buffer, pH 4.8) were injected at 5 μL/min over one of the EDC/NHS activated flow cell until levels of 1200 (for sCD4), 700 (for mAb 17b), 3000 (for streptavidin), or 4500 (for gp120s) response units (RU) were achieved. HS (1 mM in phosphate-buffered saline) was biotinylated through its reducing end by reductive amination with 10 mM of biotin-LC-Hydrazine (Pierce) and captured on the streptavidin surface (20 μg/mL in 10 mM Hepes buffer pH 7.4 and 0.3 M NaCl) to a level of 60–80 RU as described. Surfaces were then blocked with 1M ethanolamine (pH 8.5) for 5 minutes.
(§4) CD4, mAb 17b and gp120 surfaces were regenerated by 1 min injection of 10 mM HCl and the HS surface was regenerated with a 1 min injection of 0.05% SDS followed by a 3 min injection of 2 M NaCl.

[3] = test system: PD-1 expression on CD4+ and CD8+ T cells; experiment: Flow cytometry of PD-1 on T cells without HIV-1 (IND02-trimer alone); type: cell-based, human; details: no HIV-1, day 9 post exposure
[4] = test system: PD-1 expression on CD4+ and CD8+ T cells; experiment: Flow cytometry of PD-1 on T cells of HIV-1-infected PBMCs; type: cell-based, human; details: day 9 post infection
From the text: (§5) PBMCs (1 x 10^6/ml) were infected with 100 TCID50 of various HIV-1 strains (92UG037: primary R5-tropic strain; YU2B and BaL: R5-tropic lab strains, 93BR020: dual-tropic primary isolate; NL4-3: X4-tropic lab strain) and simultaneously treated with a range of concentrations of IND02-trimer in 24-well plates (Greiner) in duplicates. Cells were washed, fixed (4% paraformaldehyde) and stained on several days post infection (1-4-9-13-19) using the following mAbs against PD-1-Brilliant Violet 421, CD3-FITC, Tim-3-PE, CD4-PE-Cy7 (all from Biolegend) and CD8-APC (Miltenyi). Multicolor flow cytometric analyses were performed on a FACS Verse (BD Biosciences).
(§6) Fig 5 Reduction of Tim-3 (left) and PD1 (right) expression on HIV-1 and IND02-trimer-treated CD8^+ (A) and CD4^+ (B) T cells. Stimulated PBMCs were simultaneously incubated with 0.4 to 40 μg/ml (0.46–46.3 μM) IND02-trimer and HIV-1 (92UG037, BaL, YU2b, 93BR020 or NL4-3). Up-regulation of Tim-3 (left) and PD-1 (right) on CD8^+ (A) and CD4^+ (B) T cells was impeded by the IND02-trimer, as shown by multicolour FACS analyses of live T cells on day 9 post co-treatment. Experiments were repeated in 4–5 independent experiments with cells from different donors and statistical differences were analyzed by the GraphPad prism software using the unpaired student’s t-test (2-tailed).

Water solubility = type: physicochemical
[5] = molecular target: T2, MN gp120/CD4 complex binding to mAb 17b (co-receptor binding site) (Human immunodeficiency virus type 1 group M subtype B, UniProt P05877); parameters: species or system HIV-1; details: Fig 4E
T2 construct: purchased Immunodiagnostics (Massachusetts, USA)
Protocol: as §3, with “minutes. […]” for “minutes.”
(§7) The specific binding responses in resonance unit (RU) for MN- (A) and YU2- (B) gp120 were recorded as a function of time (s). […] The specific binding responses in resonance unit (RU) for MN- (C, E) and YU2- (D, F) gp120 were recorded as a function of time (s), and after each injection, the surface was regenerated by a short pulse of 10 mM HCl. […]

[6] = molecular target: T3, YU2 gp120/CD4 complex binding to mAb 17b (co-receptor binding site) (Human immunodeficiency virus type 1 group M subtype B, UniProt P35961); parameters: species or system HIV-1; details: Fig 4F
T3 construct: purchased Immunodiagnostics (Massachusetts, USA)
Protocol: as §3, with “minutes. […]” for “minutes.”
as §7

[7] = Stability studies in formulations; type: physicochemical; details: in various formulations
[8] = Cytotoxicity by MTT method (MAGI cells); type: cell-based; details: human, HeLa CD4/CCR5-LTR/β-gal cells (MAGI cells); MTT, mean of triplicate ± SD
Protocol: as §2

[9] = test system: HeLa CD4/CCR5-LTR/β-gal cells; experiment: Cytotoxicity by MTT method (MAGI cells); type: cell-based; details: concentrations up to 100 μg/ml (115.7 μM)
Protocol: as §2

MN gp120 (X4-tropic) = molecular target: T4, MN gp120 (X4-tropic) (Human immunodeficiency virus type 1 group M subtype B, UniProt P05877); type: binding, HIV-1; details: SPR, 0 to 25 μM injected
T4 construct: MN gp120 (50 μg/ml in 5 mM maleate buffer, pH 6); purchased Immunodiagnostics (Massachusetts, USA)
Protocol: as §3, §4
(§8) In order to evaluate the potential anti-viral properties of cinnamon, we first underwent a series of biochemical binding experiments using surface plasmon resonance. […]

YU2 gp120 (R5-tropic) = molecular target: T5, YU2 gp120 (R5-tropic) (Human immunodeficiency virus type 1 group M subtype B, UniProt P35961); type: binding, HIV-1; details: SPR, 0 to 25 μM injected
T5 construct: YU2 gp120 (50μg/mL in 10 mM acetate buffer, pH 4.8); purchased Immunodiagnostics (Massachusetts, USA)
Protocol: as §3, §4, §8

HIV-1 Ba-L (B-R5) = experiment: PBMC antiviral assay (RT activity), HIV-1 Ba-L; type: cell-based; details: Human immunodeficiency virus 1, BAL, PBMC, 168 h; PHA-P-activated PBMCs, 125 TCID50, day 7, RT activity
Protocol: as §1

HIV-1 98IN017 (C-X4) = experiment: PBMC antiviral assay (RT activity), HIV-1 98IN017; type: cell-based; details: Human immunodeficiency virus 1, PBMC, 168 h; PHA-P-activated PBMCs, 125 TCID50, day 7, RT activity
Protocol: as §1

HIV-1 LAI (B-X4) = experiment: PBMC antiviral assay (RT activity), HIV-1 LAI; type: cell-based; details: Human immunodeficiency virus 1, PBMC, 168 h; PHA-P-activated PBMCs, 125 TCID50, day 7, RT activity
Protocol: as §1

MN gp120-CD4 interaction = molecular target: T6, MN gp120-CD4 interaction (Human immunodeficiency virus type 1 group M subtype B, UniProt P05877); type: binding, HIV-1; details: SPR, immobilized CD4, data not shown
T6 construct: HIV-1 gp120 was injected over the immobilized CD4; purchased Immunodiagnostics (Massachusetts, USA)
Protocol: as §3, with “minutes. […]” for “minutes.”
(§9) The specific binding responses in resonance unit (RU) for MN- (A) and YU2- (B) gp120 were recorded as a function of time (s). […] The specific binding responses in resonance unit (RU) for MN- (C, E) and YU2- (D, F) gp120 were recorded as a function of time (s), and after each injection, the surface was regenerated by a short pulse of 10 mM HCl.

[10] = molecular target: T7, YU2 gp120-CD4 interaction (Human immunodeficiency virus type 1 group M subtype B, UniProt P35961); type: binding, HIV-1; details: SPR, immobilized CD4, data not shown
T7 construct: HIV-1 gp120 was injected over the immobilized CD4; purchased Immunodiagnostics (Massachusetts, USA)
Protocol: as §3, with “minutes. […]” for “minutes.”
as §9

[11] = test system: Tim-3 expression on CD4+ and CD8+ T cells; experiment: Flow cytometry of Tim-3 on T cells of HIV-1-infected PBMCs; type: cell-based, human; details: day 9 post infection
From the text: as §5, §6

HIV-1 LAI = experiment: MAGI assay, HIV-1 LAI; type: cell-based; details: Human immunodeficiency virus 1, MAGI cells
Protocol: as §2

## Oc1cc(O)c2c(c1)O[C@@]1(c3ccc(O)c(O)c3)Oc3cc(O)c4c(c3[C@@H]2[C@H]1O)O[C@H](c1ccc(O)c(O)c1)[C@H](O)[C@H]4c1c(O)cc(O)c2c1O[C@H](c1ccc(O)c(O)c1)[C@H](O)C2 [IND02-trimer, cinnamtannin B1]
HIV-1 92HT599 (B-X4)
  EC50: 1.2 ± 1 µM
HIV-1 92UG029 (A-X4)
  EC50: 2.3 µM
HIV-1 NL4-3
  EC50: 2.8 mg/L
HIV-1 NL4-3; 48 h, mean of triplicate ± SD
  EC50: 3.2 ± 1.4 µM
[1]; Human immunodeficiency virus 1, PBMC, read-out: EC50 over the panel of strains
  EC50: 0.8 to 7 µM
[1]; PBMCs
  ED50 against a range of clinical isolates from different clades: 1 to 7 µM
Cytotoxicity in PBMCs
  CC50: 23 ± 2 µM
[2]
  IC50: 7.5 ± 3.5 µM
[3]; 0.4 μg/ml / 0.46 μM
  % CD4+/PD-1+: 33.8%
  % CD8+/PD-1: 23.7%
[3]; 2 μg/ml / 2.31 μM
  % CD4+/PD-1+: 35.0%
  % CD8+/PD-1: 23.5%
[3]; 4 μg/ml / 4.6 μM
  % CD4+/PD-1+: 32.1%
  % CD8+/PD-1: 23.7%
[3]; 20 μg/ml / 23.1 μM
  % CD4+/PD-1+: 32.0%
  % CD8+/PD-1: 23.9%
[3]; 40 μg/ml / 46 μM
  % CD4+/PD-1+: 32.7%
  % CD8+/PD-1: 23.5%
[4]; HIV-1-exposed PBMCs, all concentrations tested (0.4 to 40 μg/ml)
  PD-1 expression on CD8+ T cells versus infected control cells: significantly reduced
[4]; HIV-1-infected PBMCs
  PD-1 expression on CD4+ T cells versus infected control cells: decreased
Water solubility
  water solubility: water-soluble
[5]
  concentration from which inhibition of MN gp120/CD4 binding to mAb 17b was observed: ≥ 50 µM
[6]
  concentration from which inhibition of YU2 gp120/CD4 binding to mAb 17b was observed: ≥ 50 µM
[7]
  time over which the compound is stable: ≥ 6 months
[8]
  CC50: 96 ± 4 µM
[9]
  cytotoxicity: did not show cytotoxicity
MN gp120 (X4-tropic)
  binding to immobilized MN gp120: gave binding signals
YU2 gp120 (R5-tropic)
  binding to immobilized YU2 gp120: gave binding signals
HIV-1 Ba-L (B-R5)
  EC50: 6.9 ± 2 µM
HIV-1 98IN017 (C-X4)
  EC50: 0.8 µM
HIV-1 LAI (B-X4)
  EC50: 4.6 ± 3 µM
MN gp120-CD4 interaction
  inhibition of MN envelope binding to CD4: did not show a significant inhibition
[10]
  inhibition of YU2 envelope binding to CD4: did not show a significant inhibition
[11]; HIV-1-infected PBMC cultures, 0.4 to 40 μg/ml (0.46–46.3 μM)
  Tim-3 expression on CD8+ T cells versus infected control cells: significantly lower expression
[11]; HIV-1-infected PBMCs
  Tim-3 expression on CD4+ T cells versus infected control cells: decreased
HIV-1 LAI
  EC50: 3.4 mg/L
HIV-1 LAI; 48 h, mean of triplicate ± SD
  EC50: 3.9 ± 1.6 µM
